According to article PMC8119466, “A screen of FDA-approved drugs identifies inhibitors of protein tyrosine phosphatase 4A3 (PTP4A3 or PRL-3)” (Scientific Reports, 2021):
Counter-ions that a name gives are not always drawn.

Key:
Format in all cases: biochemical
Details in all cases: FDA-approved drug screen; compared to DMSO
recombinant PRL-3 = molecular target: T1, recombinant PRL-3 (Homo sapiens, UniProt O75365); test: In vitro phosphatase assay (DiFMUP hydrolysis), PRL-3; note: test concentration or dose not given here
T1 construct: 6xHis (N, cleaved yes); made in house; host or cells: E. coli One Shot BL21 Star

recombinant PRL-1 = molecular target: T2, recombinant PRL-1 (Homo sapiens, UniProt Q93096); test: In vitro phosphatase assay (DiFMUP hydrolysis), PRL-1; note: test concentration or dose not given here
T2 construct: 6xHis (N, cleaved yes); made in house; host or cells: E. coli One Shot BL21 Star
T2 sequence (Q93096 1-173): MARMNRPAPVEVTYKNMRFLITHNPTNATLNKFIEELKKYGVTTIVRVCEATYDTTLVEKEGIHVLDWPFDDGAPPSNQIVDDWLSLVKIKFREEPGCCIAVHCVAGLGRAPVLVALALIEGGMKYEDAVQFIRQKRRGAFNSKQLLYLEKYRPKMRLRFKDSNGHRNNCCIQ

recombinant PRL-2 = molecular target: T3, recombinant PRL-2 (Homo sapiens, UniProt Q12974); test: In vitro phosphatase assay (DiFMUP hydrolysis), PRL-2;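 note: PRL-2 activity read as DiFMUP hydrolysis after 20 min at room temperature with drug, enzyme first pre-reduced at 4 °C for 20 min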
T3 construct: 6xHis (N, cleaved yes); made in house; host or cells: E. coli One Shot BL21 Star
T3 sequence (Q12974 1-167): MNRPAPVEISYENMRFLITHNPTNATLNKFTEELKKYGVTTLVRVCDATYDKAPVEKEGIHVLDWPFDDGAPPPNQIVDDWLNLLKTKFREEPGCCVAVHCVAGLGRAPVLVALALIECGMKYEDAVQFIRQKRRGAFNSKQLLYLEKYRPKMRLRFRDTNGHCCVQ

T1 sequence (O75365 whole entry): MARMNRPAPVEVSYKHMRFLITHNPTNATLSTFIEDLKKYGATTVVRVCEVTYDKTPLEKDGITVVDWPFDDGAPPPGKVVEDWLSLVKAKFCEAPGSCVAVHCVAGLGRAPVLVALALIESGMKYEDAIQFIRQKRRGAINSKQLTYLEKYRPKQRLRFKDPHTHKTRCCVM

Row | SMILES | % Phosphatase Activity (compared to DMSO) PRL-3 (recombinant PRL-3) [%] | % Phosphatase Activity (compared to DMSO) PRL-1 (recombinant PRL-1) [%] | % Phosphatase Activity (compared to DMSO) PRL-2 (recombinant PRL-2) [%]
1 | NC(=O)N1c2ccccc2CC(=O)c2ccccc21 [Oxcarbazepine] | 89 | 104 | 112
2 | CCN(CC)CCOCCOC(=O)C(CC)(CC)c1ccccc1.O=C(O)CC(O)(CC(=O)O)C(=O)O [Oxeladin Citrate] | 89 | 90 | 88
3 | COC(=O)Nc1nc2ccc([S+]([O-])c3ccccc3)cc2[nH]1 (stereo not drawn) [Oxfendazole] | 92 | 84 | 102
4 | NC(=O)CN1CC(O)CC1=O (stereo not drawn) [Oxiracetam] | 71 | 94 | 122
5 | COc1ccc(C(=O)c2ccccc2)c(O)c1 [Oxybenzone] | 93 | 99 | 81
6 | CCCCOc1cc(C(=O)OCCN(CC)CC)ccc1N [Oxybuprocaine HCl] | 93 | 97 | 103
7 | CCN(CC)CC#CCOC(=O)C(O)(c1ccccc1)C1CCCCC1 (stereo not drawn) [Oxybutynin chloride] | 75 | 88 | 85
8 | CCN(CC)CC#CCOC(=O)C(O)(c1ccccc1)C1CCCCC1 (stereo not drawn) [Oxybutynin] | 118 | 91 | 99
9 | Cc1cc(C(C)(C)C)c(O)c(C)c1CC1=NCCN1 [Oxymetazoline hydrochloride] | 82 | 99 | 118
10 | CN(C)[C@@H]1C(=O)C(C(N)=O)=C(O)[C@@]2(O)C(=O)C3=C(O)c4c(O)cccc4[C@@](C)(O)[C@H]3[C@H](O)[C@@H]12 [Oxytetracycline (Terramycin)] | 74 | 58 | 73
11 | CN(C)[C@@H]1C(O)=C(C(N)=O)C(=O)[C@@]2(O)C(O)=C3C(=O)c4c(O)cccc4[C@@](C)(O)[C@H]3[C@H](O)[C@@H]12 [Oxytetracycline Dihydrate] | 98 | 98 | 101
12 | O=C(O)/C=C/c1ccc(Cn2ccnc2)cc1 [Ozagrel] | 76 | 96 | 101
13 | CC(C)Oc1ccc(-c2nc(-c3cccc4c3CC[C@@H]4NCCO)no2)cc1C#N [Ozanimod (RPC1063)] | 88 | 95 | 101
14 | CN(C)Cc1c(C(=O)NCCOc2ccc(C(=O)NO)cc2)oc2ccccc12 [PCI-24781 (Abexinostat)] | 86 | 100 | 96
15 | CC(=O)O[C@H]1C(=O)[C@@]2(C)[C@H]([C@H](OC(=O)c3ccccc3)[C@]3(O)C[C@H](OC(=O)[C@H](O)[C@@H](NC(=O)c4ccccc4)c4ccccc4)C(C)=C1C3(C)C)[C@]1(OC(C)=O)CO[C@@H]1C[C@@H]2O [Paclitaxel] | 76 | 94 | 97
16 | C1=N/C2=N/c3ccc(OCCN4CCCC4)c(c3)COC/C=C/COCc3cccc(c3)C(=C1)N2 [Pacritinib (SB1518)] | 78 | 95 | 98
17 | CC(=O)c1c(C)c2cnc(Nc3ccc(N4CCNCC4)cn3)nc2n(C2CCCC2)c1=O.O=S(=O)(O)CCO [Palbociclib (PD0332991) Isethionate] | 100 | 75 | 61
18 | CC(=O)c1c(C)c2cnc(Nc3ccc(N4CCNCC4)cn3)nc2n(C2CCCC2)c1=O.Cl [Palbociclib (PD-0332991) HCl] | 102 | 68 | 61
19 | Cc1nc2n(c(=O)c1CCN1CCC(c3noc4cc(F)ccc34)CC1)CCCC2O (stereo not drawn) [Paliperidone] | 75 | 102 | 103
20 | O=C1c2cccc3c2[C@H](CCC3)CN1[C@@H]1CN2CCC1CC2 [Palonosetron HCl] | 117 | 90 | 96

Row | SMILES | % Phosphatase Activity (compared to DMSO) PRL-3 (recombinant PRL-3) [%] | % Phosphatase Activity (compared to DMSO) PRL-1 (recombinant PRL-1) [%] | % Phosphatase Activity (compared to DMSO) PRL-2 (recombinant PRL-2) [%]
21 | NCCC(O)(P(=O)([O-])O)P(=O)([O-])O.[Na+].[Na+] [Pamidronate Disodium] | 91 | 98 | 80
22 | Cc1[nH]c2ccccc2c1CCNCc1ccc(/C=C/C(=O)NO)cc1 [Panobinostat (LBH589)] | 83 | 95 | 102
23 | COc1ccnc(C[S+]([O-])c2nc3ccc(OC(F)F)cc3[nH]2)c1OC (stereo not drawn) [Pantoprazole sodium] | 88 | 97 | 98
24 | CCC(=O)NS(=O)(=O)c1ccc(-c2c(-c3ccccc3)noc2C)cc1 [Parecoxib] | 74 | 98 | 84
25 | NC[C@@H]1O[C@H](O[C@H]2[C@@H](O)[C@H](O[C@@H]3[C@@H](O)[C@H](N)C[C@H](N)[C@H]3O[C@H]3O[C@H](CO)[C@@H](O)[C@H](O)[C@H]3N)O[C@@H]2CO)[C@H](N)[C@@H](O)[C@@H]1O [Paromomycin Sulfate] | 112 | 93 | 110
26 | Cl.Fc1ccc([C@@H]2CCNC[C@H]2COc2ccc3c(c2)OCO3)cc1 [Paroxetine HCl] | 95 | 90 | 128
27 | NNC(=O)c1ccncc1.Nc1ccc(C(=O)O)c(O)c1 [Pasiniazid] | 82 | 91 | 97
28 | Cc1ccc(Nc2nccc(N(C)c3ccc4c(C)n(C)nc4c3)n2)cc1S(N)(=O)=O.Cl [Pazopanib HCl] | 82 | 86 | 83
29 | Cc1ccc(Nc2nccc(N(C)c3ccc4c(C)n(C)nc4c3)n2)cc1S(N)(=O)=O [Pazopanib] | 89 | 97 | 100
30 | CCOc1cc2ncc(C#N)c(Nc3ccc(F)c(Cl)c3)c2cc1NC(=O)/C=C/CN(C)C [Pelitinib (EKB-569)] | 97 | 111 | 120
31 | Nc1nc2[nH]cc(CCc3ccc(C(=O)N[C@@H](CCC(=O)O)C(=O)O)cc3)c2c(=O)[nH]1 [Pemetrexed] | 98 | 92 | 86
32 | Cc1cccn2c(=O)c(-c3nnn[nH]3)cnc12 [Pemirolast potassium] | 195 | 330 | 301
33 | Nc1nc2c(ncn2CCC(CO)CO)c(=O)[nH]1 [Penciclovir] | 74 | 98 | 95
34 | OC1(c2ccc(Cl)c(C(F)(F)F)c2)CCN(CCCC(c2ccc(F)cc2)c2ccc(F)cc2)CC1 [Penfluridol] | 89 | 100 | 128
35 | CC(C)(S)[C@@H](N)C(=O)O [Penicillamine] | 97 | 85 | 100
36 | N=C(N)c1ccc(OCCCCCOc2ccc(C(=N)N)cc2)cc1 [Pentamidine] | 95 | 113 | 116
37 | CC(=O)CCCCn1c(=O)c2c(ncn2C)n(C)c1=O [Pentoxifylline] | 92 | 85 | 92
38 | N#Cc1ccccc1-c1cc(-c2ccccn2)cn(-c2ccccc2)c1=O [Perampanel] | 451 | 488 | 376
39 | CCCN1C[C@H](CSC)C[C@@H]2c3cccc4[nH]cc(c34)C[C@H]21 [Pergolide mesylate] | 90 | 109 | 119
